The term IC50 denotes the midpoint of a concentration-inhibition curve.

Structures are written as SMILES.

This test deals with T1, Recombinant human BRD4 containing dual bromodomains (BRD4-BD12 (1-477)) (Homo sapiens, UniProt O60885).
T1 construct: Recombinant human BRD4 containing dual bromodomains (BRD4-BD12 (1-477)); made in house; host or cells: E. coli BL21-CodonPlus (DE3), modified pET vector
The experiment in a line: BRD4 Alphascreen binding assay. The method, boiled down:
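His-tagged human BRD4 tandem bromodomains (1-477, E. coli) incubated 1 h at room temperature with biotinylated tetra-acetylated H4 (1-21) peptide and compound in HEPES pH 7.5 buffer with 2 mM DTT. AlphaScreen signal read 30 min after adding beads (7.5 μg/ml); IC50 from four-parameter fit after normalization to controls.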
Background: Bead proximity is the source of the signal in Alpha formats.
`Cc1noc(C)c1-c1cnc2c(c1)c(-c1ccc(C(=O)O)cc1)cn2C(C)c1ncccn1` (stereo not shown) [P-0013, 4-(5-(3,5-dimethylisoxazol-4-yl)-1-(1-(pyrimidin-2-yl)ethyl)-1H-pyrrolo[2,3-b]pyridin-3-yl)benzoic acid]: the IC50 lay within 8 to 1000 µM.
To `Cc1noc(C)c1-c1cnc2c(c1)c(-c1ccc(C(=O)O)cc1)cn2C(C)c1ccc(F)cn1` (stereo not shown) [P-0014, 4-(5-(3,5-dimethylisoxazol-4-yl)-1-(1-(5-fluoropyridin-2-yl)ethyl)-1H-pyrrolo[2,3-b]pyridin-3-yl)benzoic acid] belongs 8 to 1000 µM; to `Cc1noc(C)c1-c1cnc2c(c1)c(-c1cccc(C(=O)O)c1)cn2C(c1ccccn1)C1CCCC1` (stereo not shown) [P-0015, 3-(1-(cyclopentyl(pyridin-2-yl)methyl)-5-(3,5-dimethylisoxazol-4-yl)-1H-pyrrolo[2,3-b]pyridin-3-yl)benzoic acid], 1 to 8 µM; to `Cc1noc(C)c1-c1cnc2c(c1)c(-c1ccc(F)c(C(=O)O)c1)cn2C(c1ccccn1)C1CCCC1` (stereo not shown) [P-0016, 5-(1-(cyclopentyl(pyridin-2-yl)methyl)-5-(3,5-dimethylisoxazol-4-yl)-1H-pyrrolo[2,3-b]pyridin-3-yl)-2-fluorobenzoic acid], 1 to 8 µM.
As to `Cc1noc(C)c1-c1cnc2c(c1)c(-c1ccnc(C(=O)O)c1)cn2C(c1ccccn1)C1CCCC1` (stereo not shown) [P-0017, 4-(1-(cyclopentyl(pyridin-2-yl)methyl)-5-(3,5-dimethylisoxazol-4-yl)-1H-pyrrolo[2,3-b]pyridin-3-yl)picolinic acid], the IC50 fell in the range of 1 to 8 µM.
For the compound `Cc1noc(C)c1-c1cnc2c(c1)c(-c1cccc(CC(=O)O)c1)cn2C(c1ccccn1)C1CCCC1` (stereo not shown) [P-0018, 2-(3-(1-(cyclopentyl(pyridin-2-yl)methyl)-5-(3,5-dimethylisoxazol-4-yl)-1H-pyrrolo[2,3-b]pyridin-3-yl)phenyl)acetic acid], the IC50 was 1 to 8 µM.
`Cc1noc(C)c1-c1cnc2c(c1)c(-c1ccncc1)cn2C(c1ccccn1)C1CCCC1` (stereo not shown) [P-0019, 4-(1-(cyclopentyl(pyridin-2-yl)methyl)-3-(pyridin-4-yl)-1H-pyrrolo[2,3-b]pyridin-5-yl)-3,5-dimethylisoxazole]: the IC50 is 1 to 8 µM.
As for `Cc1noc(C)c1-c1cnc2c(c1)c(-c1ccc(C(=O)O)cc1OC1CC1)cn2[C@@H](C)c1ccccn1` [P-0170, (S)-3-cyclopropoxy-4-(5-(3,5-dimethylisoxazol-4-yl)-1-(1-(pyridin-2-yl)ethyl)-1H-pyrrolo[2,3-b]pyridin-3-yl)benzoic acid], the IC50 lay in the range of 8 to 1000 µM.
Turning to `Cc1noc(C)c1-c1cnc2c(-c3ccc(C(=O)O)cc3C#CC3CC3)cn([C@@H](C)c3ccccn3)c2c1` [P-0171, (S)-3-(cyclopropylethynyl)-4-(6-(3,5-dimethylisoxazol-4-yl)-1-(1-(pyridin-2-yl)ethyl)-1H-pyrrolo[3,2-b]pyridin-3-yl)benzoic acid], the half-inhibitory concentration (IC50) is 0.0001 to 1 µM.
With `COc1ccc(C(=O)O)cc1-c1cn(C(C)(c2ccccn2)c2ccccn2)c2cc(-c3c(C)noc3C)cnc12` [P-0172, 3-(1-(1,1-di(pyridin-2-yl)ethyl)-6-(3,5-dimethylisoxazol-4-yl)-1H-pyrrolo[3,2-b]pyridin-3-yl)-4-methoxybenzoic acid] the figure was 1 to 8 µM; with `CCOc1cc(C(=O)O)cc(OCC)c1-n1cc(-c2cccnc2)c2ncc(-c3c(C)noc3C)cc21` [P-0173, 4-(6-(3,5-dimethylisoxazol-4-yl)-3-(pyridin-3-yl)-1H-pyrrolo[3,2-b]pyridin-1-yl)-3,5-diethoxybenzoic acid], 1 to 8 µM; with `CCOc1cc(C(=O)O)cc(OC(C)C)c1-c1cn([C@@H](C)c2ccccn2)c2ncc(-c3c(C)noc3C)cc12` [P-0174, (S)-4-(5-(3,5-dimethylisoxazol-4-yl)-1-(1-(pyridin-2-yl)ethyl)-1H-pyrrolo[2,3-b]pyridin-3-yl)-3-ethoxy-5-isopropoxybenzoic acid], 8 to 1000 µM.
To `Cc1noc(C)c1-c1cnc2c(c1)c(-c1ccc(C(=O)O)cc1OC(F)(F)F)cn2-c1cccnc1` [P-0175, 4-(5-(3,5-dimethylisoxazol-4-yl)-1-(pyridin-3-yl)-1H-pyrrolo[2,3-b]pyridin-3-yl)-3-(trifluoromethoxy)benzoic acid] belongs 1 to 8 µM; to `COc1ccncc1-n1cc(-c2ccc(C(=O)O)cc2OC(F)(F)F)c2cc(-c3c(C)noc3C)cnc21` [P-0176, 4-(5-(3,5-dimethylisoxazol-4-yl)-1-(4-methoxypyridin-3-yl)-1H-pyrrolo[2,3-b]pyridin-3-yl)-3-(trifluoromethoxy)benzoic acid], 1 to 8 µM.
With `Cc1noc(C)c1-c1cnc2c(c1)c(-c1ccc(C(=O)O)cc1OC(F)(F)F)cn2-c1cnccc1Cl` [P-0177, 4-(1-(4-chloropyridin-3-yl)-5-(3,5-dimethylisoxazol-4-yl)-1H-pyrrolo[2,3-b]pyridin-3-yl)-3-(trifluoromethoxy)benzoic acid] the figure was 8 to 1000 µM; with `Cc1noc(C)c1-c1cnc2c(c1)c(-c1ccc(C(=O)O)cc1C#CC1CC1)cn2[C@@H](C)c1ccccn1` [P-0178, (S)-3-(cyclopropylethynyl)-4-(5-(3,5-dimethylisoxazol-4-yl)-1-(1-(pyridin-2-yl)ethyl)-1H-pyrrolo[2,3-b]pyridin-3-yl)benzoic acid], 8 to 1000 µM.
As to `Cc1noc(C)c1-c1cnc2c(c1)c(-c1ccc(C(=O)O)cc1OC1CCC1)cn2[C@@H](C)c1ccccn1` [P-0179, (S)-3-cyclobutoxy-4-(5-(3,5-dimethylisoxazol-4-yl)-1-(1-(pyridin-2-yl)ethyl)-1H-pyrrolo[2,3-b]pyridin-3-yl)benzoic acid], the IC50 is 8 to 1000 µM.
On to `Cc1noc(C)c1-c1cnc2c(c1)c(-c1ccc(C(=O)O)cc1OC(F)(F)F)cn2-c1ncccc1C(F)(F)F` [P-0180, 4-(5-(3,5-dimethylisoxazol-4-yl)-1-(3-(trifluoromethyl)pyridin-2-yl)-1H-pyrrolo[2,3-b]pyridin-3-yl)-3-(trifluoromethoxy)benzoic acid], for which the IC50 is 8 to 1000 µM.
As to `Cc1noc(C)c1-c1cnc2c(c1)c(-c1ccc(C(=O)O)cc1C1CC1)cn2[C@@H](C)c1ccccn1` [P-0181, (S)-3-cyclopropyl-4-(5-(3,5-dimethylisoxazol-4-yl)-1-(1-(pyridin-2-yl)ethyl)-1H-pyrrolo[2,3-b]pyridin-3-yl)benzoic acid], the IC50 was in the range of 8 to 1000 µM.
Take `Cc1noc(C)c1-c1cnc2c(c1)c(-c1ccc(C(=O)O)cc1OC(F)(F)F)cn2-c1ncccc1F` [P-0182, 4-(5-(3,5-dimethylisoxazol-4-yl)-1-(3-fluoropyridin-2-yl)-1H-pyrrolo[2,3-b]pyridin-3-yl)-3-(trifluoromethoxy)benzoic acid]: the IC50 lay within 1 to 8 µM.
To `Cc1noc(C)c1-c1cnc2c(c1)c(-c1ccc(C(=O)O)cc1OC(F)(F)F)cn2-c1ncccc1Cl` [P-0183, 4-(1-(3-chloropyridin-2-yl)-5-(3,5-dimethylisoxazol-4-yl)-1H-pyrrolo[2,3-b]pyridin-3-yl)-3-(trifluoromethoxy)benzoic acid] belongs 8 to 1000 µM; to `CCOc1cc(C(=O)O)cc(OCC)c1-n1cc(-c2ccc(F)cc2)c2ncc(-c3c(C)noc3C)cc21` [P-0184, 4-(6-(3,5-dimethylisoxazol-4-yl)-3-(4-fluorophenyl)-1H-pyrrolo[3,2-b]pyridin-1-yl)-3,5-diethoxybenzoic acid], 1 to 8 µM.

(Values after US11446287B2, “Compounds and methods for EP300 or CBP modulation and indications therefor” (Opna Immuno-Oncology SA, priority 2019, dated 2022).)
